# Test results as given in patent US20220381787A1, “NOVEL LOX-1 ANTIBODY COMPOSITIONS, LOX1 NEUTRALIZATION ASSAY AND METHODS OF TREATMENT USING SAME” (The Wistar Institute of Anatomy and Biology, priority 2019, published 2022).
# Tested on: PMN isolated from a healthy donor
# Assay: FACS of untreated or Thapsigargin-treated PMN for LOX-1 expression
# Assay type: cell-based, human
# Settings: 1 μM Thapsigargin (THG)
# Description: FIGS. 10A and 10B show FACS analyses of PMN cells showing the expression of LOX-1. Representative histograms of untreated or Thapsigargin (THG)-treated cells were stained after incubating with anti-LOX-1 antibody (Ab) are shown. Percentage of LOX-1^+ PMN and expression of LOX-1 in PMN isolated from a healthy donor and treated with 1 μM […] and 1 mM Dithiothreitol (DTT). Representative LOX-1 expression level with anti-LOX-1 and commercial Abs. Representative LOX-1 expression level with DMAb derived Abs. Summary of data derived from FACS analysis of LOX-1 level is expressed as the % of LOX-1^+/CD15^+.
smiles,measurement,value
"C/C=C(/C)C(=O)O[C@H]1C(C)=C2[C@H]([C@@H]1OC(=O)CCCCCCC)[C@@](C)(OC(C)=O)C[C@H](OC(=O)CCC)[C@@]1(O)[C@H]2OC(=O)[C@@]1(C)O [THG, Thapsigargin]",percentage of LOX-1+ PMN (% of LOX-1+/CD15+),Higher percentages of PMN expressed LOX-1
